The source made the active and inactive calls.
How the values were obtained:
Chaperone protein dnaK = Chaperone protein dnaK (Escherichia coli, UniProt C3TRK2); assay: E. coli DnaK binders, calorimetric Kd – biophysical, isothermal titration calorimetry, beta-domain, full-length DnaK, orthogonal assay for DnaK modulator project, SAR follow-up (AID 1495)
[1] = test system: Streptococcus sp. 'group A'; assay: Streptococcus pyogenes SK(-)GAS viability under kanamycin – luminescence, BacTiterGlo, confirmation, counter-screen for streptokinase expression inhibitor project, dose response (AID 1900); type: functional, organism-based
[2] = biological target: Serine/threonine-protein phosphatase PP1-alpha catalytic subunit (Homo sapiens, UniProt P62136); assay: inhibition of protein phosphatase 1 activity – biochemical, fluorescence, dose response (AID 2403);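 further: phosphatase turnover of OMFP into fluorescent 3-O-methylfluorescein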
Streptokinase A = biological target: T1, Streptokinase A (Streptococcus pyogenes serotype M1, UniProt P10520); assay: viability-normalized secreted streptokinase activity reduction – plasminogen activation absorbance, OD405, dose response (AID 1914); type: functional, Streptococcus pyogenes M1 GAS;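 further: secreted streptokinase activity via plasminogen activation per viability signal from cell pellet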
T1 sequence (P10520 whole entry): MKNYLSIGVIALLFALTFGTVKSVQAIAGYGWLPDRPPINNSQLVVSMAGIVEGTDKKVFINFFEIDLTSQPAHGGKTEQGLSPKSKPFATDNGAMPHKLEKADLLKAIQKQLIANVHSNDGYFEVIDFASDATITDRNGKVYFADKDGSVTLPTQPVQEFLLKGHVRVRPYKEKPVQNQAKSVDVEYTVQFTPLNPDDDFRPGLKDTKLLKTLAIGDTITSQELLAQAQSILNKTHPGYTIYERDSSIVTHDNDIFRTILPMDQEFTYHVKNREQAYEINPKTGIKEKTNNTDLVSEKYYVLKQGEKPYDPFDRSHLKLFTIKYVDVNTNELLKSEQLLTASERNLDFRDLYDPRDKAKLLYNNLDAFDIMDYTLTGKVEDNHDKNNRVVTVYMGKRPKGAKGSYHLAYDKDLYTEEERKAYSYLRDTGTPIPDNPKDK

[3] = Trypanosoma cruzi growth suppression in host cells – NIH3T3 host cells, beta-gal luminescence, confirmation (AID 2044); type: functional, cell-based;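 further: intracellular parasites grown in NIH/3T3 mouse fibroblasts as host cells; luminescent beta-galactosidase reporter signal from transgenic T. cruzi replicating inside host cells; inhibitors lower the luminescence signal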
[4] = biological target: Serine/threonine-protein phosphatase (Homo sapiens, UniProt Q9BPW0); assay: Counterscreen for inhibitors of PP1: fluorescence-based biochemical high throughput dose response assay to identify inhibitors of Protein Phosphatase 5 (PP5). [Related pubchem assays: 2034 (Summary (PP5 inhibitors)), 1987 (PP5 inhibitors in singlate), 2235 (PP1 inhibitors in singlate)]
[5] = NIH3T3 cell viability loss – ATP luminescence, mouse fibroblasts, counter-screen, dose response (AID 2010); type: functional, cell-based;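 further: cells exposed to compound for about 90 hours before reading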
Streptococcus = assay: GAS UMAA2166 growth inhibition – luminescence, BacTiterGlo, counter-screen for streptokinase expression inhibitor project, dose response (AID 1915); type: functional, organism-based;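 further: potency for reduction of bacterial viability or growth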
[6] = Luminescence-based counterscreen assay for KLF5 inhibitors: dose response cell-based high throughput screening assay to identify cytotoxic compounds using the IEC-6 intestinal epithelial cell line. [Related pubchem assays: 1700 (Primary screen.), 1834 (Confirmation screen.), 1858 (Summary AID.), 1905 (Counterscreen.)]; type: functional
[7] = biological target: T2, Microphthalmia-associated transcription factor (Homo sapiens, UniProt O75030); assay: reducers of TRPM1 reporter luminescence, concentration series – cell-based, SK-MEL-5, cherry-picked, set 3, MITF inhibitor project, dose response (AID 493073); type: functional;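 further: SK-MEL-5 melanoma cells with luciferase driven by the MITF target TRPM1 promoter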
T2 sequence (O75030 whole entry): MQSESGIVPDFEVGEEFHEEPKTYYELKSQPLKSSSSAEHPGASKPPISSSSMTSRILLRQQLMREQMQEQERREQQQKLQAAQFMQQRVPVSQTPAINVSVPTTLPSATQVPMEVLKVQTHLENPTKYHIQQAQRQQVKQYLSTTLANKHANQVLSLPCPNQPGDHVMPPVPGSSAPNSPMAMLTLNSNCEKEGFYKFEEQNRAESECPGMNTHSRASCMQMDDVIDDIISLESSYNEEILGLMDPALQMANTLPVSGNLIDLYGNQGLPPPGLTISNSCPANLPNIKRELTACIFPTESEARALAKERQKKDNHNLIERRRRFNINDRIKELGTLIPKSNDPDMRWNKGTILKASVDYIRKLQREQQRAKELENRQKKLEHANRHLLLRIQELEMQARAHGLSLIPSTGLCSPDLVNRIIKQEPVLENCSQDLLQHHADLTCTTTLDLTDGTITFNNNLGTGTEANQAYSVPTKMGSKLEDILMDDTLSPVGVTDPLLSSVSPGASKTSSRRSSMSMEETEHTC

[8] = biological target: T3, Eukaryotic translation initiation factor 2-alpha kinase 3 (Homo sapiens, UniProt Q9NZJ5); assay: Dose response cell-based high-throughput screening assay to measure PERK inhibition. [Related pubchem assays: 1416 ]; type: functional
[9] = biological target: T3, Eukaryotic translation initiation factor 2-alpha kinase 3; assay: Counterscreen assay for PERK inhibitors: Dose response cell-based high throughput screening assay to measure inhibition of PERK at 6 hours. [Related pubchem assays: 1522, 1416 ]; type: functional
Aminopeptidase N = biological target: T4, Aminopeptidase N (Plasmodium falciparum FcB1/Columbia, UniProt O96935); assay: malaria alanyl aminopeptidase activity blockers – biochemical, fluorogenic H-Leu-NHMec substrate, 1536-well (AID 1445); set-up: species or system Plasmodium falciparum 3D7, 3D7
T4 sequence (O96935 whole entry): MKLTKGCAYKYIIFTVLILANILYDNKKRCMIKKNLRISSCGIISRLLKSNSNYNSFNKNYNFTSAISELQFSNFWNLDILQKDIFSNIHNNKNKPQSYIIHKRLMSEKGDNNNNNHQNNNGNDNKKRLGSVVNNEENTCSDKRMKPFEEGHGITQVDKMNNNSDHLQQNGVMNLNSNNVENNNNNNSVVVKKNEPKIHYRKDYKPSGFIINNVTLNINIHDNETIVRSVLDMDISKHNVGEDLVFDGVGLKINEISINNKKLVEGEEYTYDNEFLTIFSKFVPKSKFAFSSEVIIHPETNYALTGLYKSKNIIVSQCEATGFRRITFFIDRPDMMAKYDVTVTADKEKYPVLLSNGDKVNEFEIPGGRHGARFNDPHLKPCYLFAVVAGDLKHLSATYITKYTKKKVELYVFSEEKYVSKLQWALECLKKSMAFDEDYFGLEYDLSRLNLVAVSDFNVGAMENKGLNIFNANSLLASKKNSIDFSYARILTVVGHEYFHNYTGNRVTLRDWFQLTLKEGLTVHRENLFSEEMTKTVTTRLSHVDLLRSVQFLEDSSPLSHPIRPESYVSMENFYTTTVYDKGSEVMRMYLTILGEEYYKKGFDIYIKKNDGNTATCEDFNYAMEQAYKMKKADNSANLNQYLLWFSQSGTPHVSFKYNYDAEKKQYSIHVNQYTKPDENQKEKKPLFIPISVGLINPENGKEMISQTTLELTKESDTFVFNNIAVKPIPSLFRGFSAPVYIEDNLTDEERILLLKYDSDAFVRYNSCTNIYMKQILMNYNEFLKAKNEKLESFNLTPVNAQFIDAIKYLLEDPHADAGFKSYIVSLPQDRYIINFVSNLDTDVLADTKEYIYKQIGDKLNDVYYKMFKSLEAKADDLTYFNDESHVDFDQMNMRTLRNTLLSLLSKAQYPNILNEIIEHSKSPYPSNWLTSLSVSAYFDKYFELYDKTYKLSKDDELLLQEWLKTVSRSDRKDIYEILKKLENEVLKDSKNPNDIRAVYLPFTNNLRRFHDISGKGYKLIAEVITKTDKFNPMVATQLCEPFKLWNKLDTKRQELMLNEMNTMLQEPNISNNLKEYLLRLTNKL

[10] = M. tuberculosis H37Rv growth inhibitors, H37Rv strain (AID 1626); type: functional
[11] = antiviral protection against BTV-induced cell death – arbovirus, BSR cells, confirmation (AID 1250); type: functional;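 further: protection from viral cytopathic effect measured as cell viability by ATP luminescence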
Melanocortin receptor 4 = Melanocortin receptor 4 (Homo sapiens, UniProt P32245); assay: inhibitors of MC4R cAMP signaling – cell-based, TR-FRET, biased antagonists, dose response (AID 602298); type: functional;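 further: antagonist potency against agonist-stimulated cAMP production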
[12] = cAMP pathway inhibition in counterscreen cell line – TR-FRET cAMP detection, counter-screen for MC4R biased antagonist project, dose response (AID 602305); type: functional, cell-based;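 further: U2OS cells stimulated with forskolin near its EC80 as the cAMP inducer; potency is for inhibition of forskolin-stimulated cAMP signaling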
Vero [13] = assay: Vero cell viability after compound exposure – synthesized analogs, set II, cytotoxicity control for West Nile virus antiviral project, SAR follow-up (AID 2402); type: functional; conditions: Chlorocebus sabaeus
Vero [14] = assay: host cell viability loss, Vero E6 – synthesized analogs, cytotoxicity control for West Nile virus antiviral project, SAR follow-up (AID 2244); type: functional; conditions: Chlorocebus sabaeus
[15] = viability of uninfected HEp-2 cells – cell-based, HTS, cytotoxicity control for RSV inhibitor project, dose response (AID 2410); type: functional; conditions: human respiratory syncytial virus
[16] = biological target: Acyl-homoserine lactone acylase PvdQ (Pseudomonas aeruginosa (strain LESB58), UniProt Q9I194); assay: PvdQ acylase enzyme activity blockers – biochemical, fluorescence, plate reader and imaging, cherry-picks, dose response (AID 493231)
Cytochrome P450 2D6 = Cytochrome P450 2D6 (Homo sapiens, UniProt P10635); assay: qHTS Assay for Inhibitors and Substrates of Cytochrome P450 2D6. [Related pubchem assays: 410 ]; type: ADME; conditions: read-out: Potency
[17] = biological target: Voltage-gated N-type calcium channel alpha-1B subunit/Amyloid beta A4 precursor protein-binding family A member 1 (Homo sapiens, UniProt Q00975+Q02410); assay: disruptors of Mint-PDZ/N-type channel peptide interaction – biochemical, HTRF, set 2, SAR follow-up (AID 434980); type: functional
[18] = biological target: Melanin-concentrating hormone receptor 1 (Homo sapiens, UniProt Q99705); assay: Late-stage fluorescence-based counterscreen for antagonists of the G-protein coupled receptor 7 (GPR7): cell-based dose response assay to identify antagonists of the melanin-concentrating hormone receptor 1 (MCHR1). [Related pubchem assays (depositor defined):AID1861, AID1880, AID1952, AID2148, AID2251, AID2257, AID485339]; type: functional;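 further: stimulated with 30 nM MCH peptide agonist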
[19] = biological target: Heat shock cognate 71 kDa protein (Homo sapiens, UniProt P11142); assay: In Vitro Hsc70 Dose Response Fluorescence Polarization Assay. [Related pubchem assays: 1072 ]
[20] = biological target: Heat shock 70 kDa protein 1A (Homo sapiens, UniProt P0DMV8); assay: inhibition of Hsp70 binding activity – biochemical, fluorescence polarization, SAR follow-up (AID 1072)
Staphylococcus aureus = assay: Inhibitors of Bacterial Quorum Sensing Structure Activity Relationship (SAR) Analysis: Dose Response Assay. [Related pubchem assays: 700, 527 ]; type: functional, organism-based
Genome polyprotein = Genome polyprotein (dengue virus type 2, UniProt P29990); assay: flavivirus cap methylation enzyme inhibition – biochemical, confirmation dose response, primary screen (AID 588689); type: functional

T3 sequence (Q9NZJ5 whole entry): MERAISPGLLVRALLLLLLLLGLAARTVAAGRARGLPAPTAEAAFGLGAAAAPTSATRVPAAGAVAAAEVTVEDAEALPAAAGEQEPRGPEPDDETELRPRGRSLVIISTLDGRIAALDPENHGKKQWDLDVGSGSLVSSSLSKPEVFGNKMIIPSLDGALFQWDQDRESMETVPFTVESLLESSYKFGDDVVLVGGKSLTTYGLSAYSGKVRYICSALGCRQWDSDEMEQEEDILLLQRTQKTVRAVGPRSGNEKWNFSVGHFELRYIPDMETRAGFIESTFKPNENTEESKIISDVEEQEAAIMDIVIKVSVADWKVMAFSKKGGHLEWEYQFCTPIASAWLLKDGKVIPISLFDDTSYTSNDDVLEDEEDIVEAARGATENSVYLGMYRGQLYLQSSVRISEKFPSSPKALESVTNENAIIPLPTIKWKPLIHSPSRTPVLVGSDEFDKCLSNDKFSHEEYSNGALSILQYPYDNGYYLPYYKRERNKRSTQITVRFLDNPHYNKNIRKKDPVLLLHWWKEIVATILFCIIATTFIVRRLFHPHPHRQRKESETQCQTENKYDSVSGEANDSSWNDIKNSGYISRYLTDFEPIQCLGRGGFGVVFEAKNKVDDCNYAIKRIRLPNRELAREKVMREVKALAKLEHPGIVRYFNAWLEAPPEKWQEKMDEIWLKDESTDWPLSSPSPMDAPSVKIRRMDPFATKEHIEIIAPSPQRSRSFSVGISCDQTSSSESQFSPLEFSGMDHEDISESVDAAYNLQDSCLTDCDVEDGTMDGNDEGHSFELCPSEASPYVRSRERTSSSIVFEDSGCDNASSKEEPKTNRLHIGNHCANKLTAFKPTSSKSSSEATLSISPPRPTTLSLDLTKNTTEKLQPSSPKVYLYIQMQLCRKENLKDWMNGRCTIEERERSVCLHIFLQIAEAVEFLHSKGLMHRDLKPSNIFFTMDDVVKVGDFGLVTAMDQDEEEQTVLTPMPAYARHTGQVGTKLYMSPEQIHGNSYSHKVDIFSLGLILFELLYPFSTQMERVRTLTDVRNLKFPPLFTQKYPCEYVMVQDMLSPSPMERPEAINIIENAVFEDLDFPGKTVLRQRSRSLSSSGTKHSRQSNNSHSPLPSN
Sequence of Heat shock 70 kDa protein 1A (P0DMV8 whole entry): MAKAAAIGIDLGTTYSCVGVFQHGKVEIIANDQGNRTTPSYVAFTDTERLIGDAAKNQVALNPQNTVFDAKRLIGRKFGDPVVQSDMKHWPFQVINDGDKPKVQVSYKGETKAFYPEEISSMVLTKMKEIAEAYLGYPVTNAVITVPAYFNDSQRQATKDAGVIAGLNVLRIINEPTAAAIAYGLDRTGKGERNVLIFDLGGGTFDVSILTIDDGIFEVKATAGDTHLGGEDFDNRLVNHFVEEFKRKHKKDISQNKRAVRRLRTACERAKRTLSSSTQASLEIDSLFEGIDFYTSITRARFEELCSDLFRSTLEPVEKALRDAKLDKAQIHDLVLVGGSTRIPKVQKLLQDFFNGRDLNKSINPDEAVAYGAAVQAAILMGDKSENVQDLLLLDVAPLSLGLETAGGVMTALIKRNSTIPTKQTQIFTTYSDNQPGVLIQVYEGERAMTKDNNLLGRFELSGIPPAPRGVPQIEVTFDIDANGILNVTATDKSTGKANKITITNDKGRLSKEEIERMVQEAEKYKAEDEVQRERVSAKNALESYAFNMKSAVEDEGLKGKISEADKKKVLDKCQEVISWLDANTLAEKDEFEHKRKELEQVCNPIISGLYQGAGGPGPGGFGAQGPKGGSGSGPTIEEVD
Sequence of Melanin-concentrating hormone receptor 1 (Q99705 whole entry): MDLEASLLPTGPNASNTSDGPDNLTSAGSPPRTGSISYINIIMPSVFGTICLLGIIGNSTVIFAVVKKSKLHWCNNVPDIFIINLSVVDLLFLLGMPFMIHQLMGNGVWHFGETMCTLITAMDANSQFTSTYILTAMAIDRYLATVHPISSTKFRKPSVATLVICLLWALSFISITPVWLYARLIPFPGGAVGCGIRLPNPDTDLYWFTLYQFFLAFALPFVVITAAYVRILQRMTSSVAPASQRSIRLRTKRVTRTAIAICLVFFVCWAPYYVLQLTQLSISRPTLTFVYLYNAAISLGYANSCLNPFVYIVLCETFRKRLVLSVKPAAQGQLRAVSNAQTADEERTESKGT
Sequence of Chaperone protein dnaK (C3TRK2 whole entry): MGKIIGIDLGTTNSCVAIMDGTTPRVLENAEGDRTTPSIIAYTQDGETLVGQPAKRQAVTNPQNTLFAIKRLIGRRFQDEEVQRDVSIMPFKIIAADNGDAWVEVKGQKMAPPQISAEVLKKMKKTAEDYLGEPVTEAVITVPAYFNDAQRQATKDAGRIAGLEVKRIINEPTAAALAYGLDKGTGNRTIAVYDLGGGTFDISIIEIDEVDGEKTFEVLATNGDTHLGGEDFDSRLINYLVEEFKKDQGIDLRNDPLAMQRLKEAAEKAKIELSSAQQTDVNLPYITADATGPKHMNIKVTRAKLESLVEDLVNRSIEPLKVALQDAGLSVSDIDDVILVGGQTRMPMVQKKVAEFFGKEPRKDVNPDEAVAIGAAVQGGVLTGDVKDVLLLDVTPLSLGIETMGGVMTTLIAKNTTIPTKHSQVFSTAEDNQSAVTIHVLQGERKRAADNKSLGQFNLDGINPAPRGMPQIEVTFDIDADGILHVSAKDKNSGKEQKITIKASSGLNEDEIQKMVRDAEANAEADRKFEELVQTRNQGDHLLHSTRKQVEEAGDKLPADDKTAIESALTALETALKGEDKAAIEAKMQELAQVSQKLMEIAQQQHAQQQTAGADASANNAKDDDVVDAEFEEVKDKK
Sequence of Heat shock cognate 71 kDa protein (P11142 whole entry): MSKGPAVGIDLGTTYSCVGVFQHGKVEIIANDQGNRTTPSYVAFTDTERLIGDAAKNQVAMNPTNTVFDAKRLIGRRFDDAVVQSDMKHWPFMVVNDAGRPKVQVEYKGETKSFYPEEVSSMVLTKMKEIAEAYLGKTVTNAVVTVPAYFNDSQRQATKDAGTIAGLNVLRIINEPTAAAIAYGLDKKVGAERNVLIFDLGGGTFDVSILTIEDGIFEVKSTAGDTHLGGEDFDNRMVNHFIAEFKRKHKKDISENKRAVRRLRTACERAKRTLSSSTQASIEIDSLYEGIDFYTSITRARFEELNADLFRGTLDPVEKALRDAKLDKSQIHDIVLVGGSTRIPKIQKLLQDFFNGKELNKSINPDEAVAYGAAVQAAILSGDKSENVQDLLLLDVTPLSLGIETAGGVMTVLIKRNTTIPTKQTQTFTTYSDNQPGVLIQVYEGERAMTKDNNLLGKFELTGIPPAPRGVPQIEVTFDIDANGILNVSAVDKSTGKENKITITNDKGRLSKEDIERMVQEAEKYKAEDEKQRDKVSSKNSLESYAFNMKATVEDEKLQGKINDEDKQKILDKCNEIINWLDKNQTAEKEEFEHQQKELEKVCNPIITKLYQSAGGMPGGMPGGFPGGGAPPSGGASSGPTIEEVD
Sequence of Acyl-homoserine lactone acylase PvdQ (Q9I194 24-193 limits assumed): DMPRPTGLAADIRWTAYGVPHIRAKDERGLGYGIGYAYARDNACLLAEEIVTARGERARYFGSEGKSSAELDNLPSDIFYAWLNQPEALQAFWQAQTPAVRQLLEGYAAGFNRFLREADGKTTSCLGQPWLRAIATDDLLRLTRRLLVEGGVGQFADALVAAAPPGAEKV
Sequence of Acyl-homoserine lactone acylase PvdQ (Q9I194 217-762 limits assumed): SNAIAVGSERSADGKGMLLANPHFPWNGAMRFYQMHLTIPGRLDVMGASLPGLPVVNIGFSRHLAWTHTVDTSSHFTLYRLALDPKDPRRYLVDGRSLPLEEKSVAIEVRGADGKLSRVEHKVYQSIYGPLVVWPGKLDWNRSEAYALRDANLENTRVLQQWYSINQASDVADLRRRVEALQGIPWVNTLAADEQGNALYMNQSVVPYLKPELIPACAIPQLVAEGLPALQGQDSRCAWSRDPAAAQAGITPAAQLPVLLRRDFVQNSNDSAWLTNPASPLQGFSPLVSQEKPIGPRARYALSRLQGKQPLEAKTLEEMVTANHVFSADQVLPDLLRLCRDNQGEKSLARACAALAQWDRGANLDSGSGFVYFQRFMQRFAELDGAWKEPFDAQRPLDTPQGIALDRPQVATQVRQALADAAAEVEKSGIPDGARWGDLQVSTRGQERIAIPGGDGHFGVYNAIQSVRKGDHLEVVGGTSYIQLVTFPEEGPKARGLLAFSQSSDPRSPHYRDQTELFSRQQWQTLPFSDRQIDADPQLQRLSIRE
Sequence of Cytochrome P450 2D6 (P10635 whole entry): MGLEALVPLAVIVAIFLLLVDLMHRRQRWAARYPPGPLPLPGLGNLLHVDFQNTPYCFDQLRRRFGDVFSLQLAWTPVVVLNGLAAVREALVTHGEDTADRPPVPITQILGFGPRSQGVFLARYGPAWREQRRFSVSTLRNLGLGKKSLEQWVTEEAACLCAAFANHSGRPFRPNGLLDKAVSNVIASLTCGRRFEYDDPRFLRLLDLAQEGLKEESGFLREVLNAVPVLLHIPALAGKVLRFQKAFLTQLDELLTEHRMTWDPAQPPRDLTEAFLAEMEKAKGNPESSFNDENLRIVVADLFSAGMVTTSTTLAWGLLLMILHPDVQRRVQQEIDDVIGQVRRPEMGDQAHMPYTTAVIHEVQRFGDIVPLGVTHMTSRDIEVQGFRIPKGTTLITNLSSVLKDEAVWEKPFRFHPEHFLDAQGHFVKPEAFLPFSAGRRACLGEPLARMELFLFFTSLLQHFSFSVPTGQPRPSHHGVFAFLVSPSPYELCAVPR
Sequence of Serine/threonine-protein phosphatase PP1-alpha catalytic subunit (P62136 whole entry): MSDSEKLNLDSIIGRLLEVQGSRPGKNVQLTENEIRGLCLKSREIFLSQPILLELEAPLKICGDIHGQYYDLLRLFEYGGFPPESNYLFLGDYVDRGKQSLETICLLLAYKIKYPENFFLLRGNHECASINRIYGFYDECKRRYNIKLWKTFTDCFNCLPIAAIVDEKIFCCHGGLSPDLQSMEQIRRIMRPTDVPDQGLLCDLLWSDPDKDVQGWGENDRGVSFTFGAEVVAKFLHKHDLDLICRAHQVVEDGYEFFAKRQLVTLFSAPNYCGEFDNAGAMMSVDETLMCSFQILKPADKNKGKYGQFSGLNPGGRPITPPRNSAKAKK

**Q.** For O=C(Nc1ccc2[nH]ccc2c1)c1cccs1, which Kd (Chaperone protein dnaK) is on record?
**A.** Its Kd is 12.7 µM (active).

**Q.** What does the source list for COc1ccc(OCCCC(=O)Nc2nc(-c3ccccn3)cs2)cc1?
**A.** EC50 [1]: 31.2 µM (active); IC50 [2]: 4.59 µM (active); EC50 (Streptokinase A): > 150 µM (not active); EC50 [3]: 3.24 µM (active); IC50 [4]: > 67 µM (not active); EC50 [5]: 4.35 µM (active); EC50 (Streptococcus): > 150 µM (not active)

**Q.** Which IC50 [6] does the source give for CCCc1ccc(-c2ccc(/C=C/C(=O)O)cc2)nc1 here?
**A.** The IC50 was > 39.8 µM (not active).

**Q.** And the AC50 [7]?
**A.** The AC50 was 0.039 µM (active).

**Q.** With COc1cc([N+](=O)[O-])cc2sc(NC(=O)C(C)(C)C)nc12 as the compound, how does the EC50 [8] read?
**A.** The EC50 was > 55.7 µM (not active).

**Q.** What about the EC50 [9] of the same compound?
**A.** The EC50 was > 55.7 µM (not active).

**Q.** What does the source list for CCOc1ccc2nc(NC(=O)CSc3nc(O)c(C#N)c(-c4ccccc4)n3)sc2c1?
**A.** IC50 (Aminopeptidase N): 24.1 µM (active); IC50 [10]: > 100 µM (active); IC50 [11]: 37.9 µM (active); IC50 (Melanocortin receptor 4): > 64.6 µM (inactive); IC50 [12]: > 64.6 µM (inactive)

**Q.** Which CC50 (Vero [13]) does the source give for CCCN(C(=O)c1ccccc1Cl)c1nc(-c2ccc(OC)cc2)cs1 here?
**A.** Its CC50 is 63.2 µM (active).

**Q.** And the CC50 (Vero [14])?
**A.** The CC50 was > 40 µM (active).

**Q.** For COc1ccc(CCNC(=O)c2ccc(-c3ccc([N+](=O)[O-])cc3Cl)o2)cc1, which CC50 [15] is on record?
**A.** Its CC50 is 33.6 µM (active).

**Q.** What about the IC50 (cells) of the same compound?
**A.** Its IC50 is 25.5 µM (active).

**Q.** For CC1SCC(NC(=O)c2cccc(Cl)c2)CS1 (centres undefined), which AC50 [16] is on record?
**A.** Its AC50 is > 100 µM (inactive).

**Q.** Which AC50 (Cytochrome P450 2D6) does the source give for COc1ccc2c(=O)cc(-c3ccc(O)cc3)oc2c1 here?
**A.** Its AC50 is 15.8 µM (inconclusive).

**Q.** For O=C(Nc1ncc(-c2ccccc2)o1)c1cc(-c2ccco2)nc2ccccc12, which IC50 [17] is on record?
**A.** The IC50 was > 56.8 µM (inactive).

**Q.** With COc1ccc(Oc2c(Br)cnn(-c3ccc(C(C)C)cc3)c2=O)cc1 as the compound, how does the IC50 [18] read?
**A.** The IC50 was 0.72 µM (active).

**Q.** Which IC50 [19] does the source give for O=C(O)C1CCCCC1c1c2ccc(=O)c(O)c-2oc2c(O)c(O)ccc12 (centres undefined) here?
**A.** Its IC50 is 42.4 µM (active).

**Q.** What about the IC50 [20] of the same compound?
**A.** The IC50 was 9.85 µM (active).

**Q.** Which results are given for CC(C)c1ccc(S(=O)(=O)c2nnn3c2nc(O)c2ccccc23)cc1 [SAVIRIN]?
**A.** IC50 (Staphylococcus aureus): 0.25 µM (active); IC50 (Genome polyprotein): 51.5 µM (active)

Reference: ChEMBL document CHEMBL1201862, “PubChem BioAssay data set” (2004)
